# Measured values published in patent US8853373B2, “Method and reagent for gene sequence analysis” (Hitachi, Ltd., priority 2009, dated 2014).
# Experiments:
# luciferase = luciferase (Photinus pyralis, UniProt P08659); assay: Evaluation of substrate specificity for luciferase (luminescence on dispensing the substrate); format: biochemical; conditions: for Substrate specificity (S) for luciferase, relative to that of ATP: amount of luminescence per unit concentration, substrate specificity of ATP normalized as 1
# Description: In respect to the nucleic acid substrates synthesized, whether or not the substrates became a substrate for luciferase was evaluated by the following procedure. First, a luminescence reagent designated in Condition 1 of Table 1 was prepared.
# Next, a reaction solution was prepared using 20 μL of this luminescence reagent, and 0.2 μL of a nucleic acid substrate of evaluation subject was injected. Then, luminescence emitted at this occasion was estimated. FIG. 6 is a graph showing the amount of luminescence when ATP, dATP, C^7dATP, and dATPαS are each dispensed as a substrate. The abscissa (C) indicates a final concentration of the compound in a reaction reagent. For example, when 0.2 μl of 1 μM substrate is dispensed, the final concentration is about 0.01 μM. An amount of luminescence (U) indicated in the ordinate was plotted by normalizing the amount of luminescence at 0.01 μM of ATP as 1. From this graph, the amount of luminescence (U) is found to be proportional to the final concentration (C). Because of this, as a substrate specificity (or substrate reactivity) for luciferase, the value (S) indicating the amount of luminescence per unit concentration is defined as described below. Substrate specificity (S)≡Amount of luminescence (U)/Final concentration (C)[μM]×0.01 (In this Definition, the Substrate Specificity of ATP is Normalized as 1).
# The four points designated in the left side of the graph indicate each substrate specificity (S) of ATP, dATP, dATPαS, and C^7dATP. For a sequencing method using a stepwise chemical reaction represented by pyrosequencing, the amount of ATP generated from pyrophosphate produced in elongation of one nucleotide is equivalent to the amount of a target present in a reaction solution when all of the targets have been elongated. In addition, elongation of a plurality of nucleotides causes the amount to be multiplied by the number of the nucleotides. Generally speaking, the amount of a nucleic acid substrate which should be dispensed per reaction for sequencing requires about 100 times the amount of the target for analysis. This is because a sequenced region may sometimes contain about 10 consecutive identical nucleotides; and a reaction solution for this sequencing method has a substrate-degrading enzyme together, so that the nucleic acid elongation and substrate degradation are competed. Shortage of the substrates causes incomplete elongation, so that the following sequence analysis cannot be carried out. […] As a countermeasure against it, the substrate having about 100 times the target amount which has been generally used is preferably dispensed per reaction.
# In this Example, the synthesized nucleic acid substrates were purified by liquid chromatography. However, removal of pyrophosphate that had been incorporated during the synthesis may be insufficiently carried out only by liquid chromatography-mediated purification. At that occasion, the present inventors treated the synthesized nucleic acid substrates by a pyrophosphate-degrading enzyme (PPase) to decompose the pyrophosphate. Specifically, the synthesized nucleic acid substrate was diluted in a reaction solution (100 mM Tris-Acetate, 0.5 mM EDTA, 5 mM Mg-Acetate, 1 mM DTT, pH 7.5) at a concentration of 500 μM. Then, PPase was added at 0.2 mU/μL, and the mixture was reacted at 30° C. for 30 minutes, which caused degradation of pyrophosphate in the solution. This method represents one example. […]
# DNA Sequence S2 = assay: Sequence analysis by stepwise chemical reaction (pyrogram), PPDK system, Condition 4; format: biochemical; conditions: DNA Sequence S2 (3 consecutive nucleotides)
# Description: Therefore, a sequence having 3 consecutive nucleotides of T was analyzed for comparison. Analyzed DNA Sequence S2 and a primer P3 are described below.
# Of note is that Sequence P3 represents a primer sequence. This primer can complementarily bind to the underlined portion of the above DNA Sequence S2. FIGS. 16 to 20 show the results of a sequence analysis. In addition, the reagent conditions were listed together in the following Table 3.
# In this experiment, an enzyme system which converts PPi into ATP has employed an enzyme system in which PPi and AMP are converted into ATP by PPDK as described in the conventional technique (Patent Literature 4). The items of the figure are identical to those of FIG. 15. At the bottom of the respective figures, the injected nucleotide types are designated. At the top, the nucleotide types which have been incorporated into a complementary DNA sequence of analysis object are designated. The substrate was injected in the order of “bases A, T, C, and G”, and 7 cycles were analyzed. As indicated in the target sequence, in this analysis, two regions (Cycle 4 and Cycle 7) having 3 consecutive nucleotides of A incorporated are present. Because of this, a difference in the ability of continuous incorporation of a nucleic acid substrate that is used as a nucleotide A can be assessed. Hereinafter, the details are described.
# First, three kinds of the substrates (A3d, dATPαS, and C^7dATP) having the final concentration of 2 μM were used. The results of a sequence analysis will be described (FIGS. 16 to 20). […] At the time of dispensing A (surrounded by the circle ◯) which represented the injected nucleotide type, A3d was used. […] Accordingly, as the signal corresponding to A at the first cycle indicated, background luminescence was observed. Due to this phenomenon, the luminescence signal corresponding to nucleotide A constantly included the increased background luminescence. The symbol • in the figure denotes elongation luminescence corresponding to a nucleotide sequence of a sample. In contrast, the major luminescence without corresponding to the nucleotide sequence is represented by the symbol ∇. […] At the time of dispensing A (surrounded by the circle ◯) which represented the injected nucleotide type, dATPαS was used. The resulting pyrogram and the nucleotide sequence of a sample were compared. The symbol • in the figure denotes elongation luminescence corresponding to a nucleotide sequence of a sample. In contrast, the major luminescence without corresponding to the nucleotide sequence is represented by the symbol ∇. […] At the time of dispensing A (surrounded by the circle ◯) which represented the injected nucleotide type, C^7dATP was used. […] Accordingly, as the signal corresponding to A at the first cycle indicated, big background luminescence was observed. Due to this phenomenon, the luminescence signal corresponding to nucleotide A constantly included the increased background luminescence. The symbol x in the figure denotes just a background luminescence signal. The symbol • denotes elongation luminescence corresponding to a nucleotide sequence of a sample. However, the symbol (•) denotes inclusion of both elongation-derived luminescence and background luminescence. In contrast, the major luminescence without corresponding to the nucleotide sequence is represented by the symbol ∇.
# [1] = final concentration 2 μM, 7 cycles
# luciferase, sequence (P08659 whole entry, species assumed): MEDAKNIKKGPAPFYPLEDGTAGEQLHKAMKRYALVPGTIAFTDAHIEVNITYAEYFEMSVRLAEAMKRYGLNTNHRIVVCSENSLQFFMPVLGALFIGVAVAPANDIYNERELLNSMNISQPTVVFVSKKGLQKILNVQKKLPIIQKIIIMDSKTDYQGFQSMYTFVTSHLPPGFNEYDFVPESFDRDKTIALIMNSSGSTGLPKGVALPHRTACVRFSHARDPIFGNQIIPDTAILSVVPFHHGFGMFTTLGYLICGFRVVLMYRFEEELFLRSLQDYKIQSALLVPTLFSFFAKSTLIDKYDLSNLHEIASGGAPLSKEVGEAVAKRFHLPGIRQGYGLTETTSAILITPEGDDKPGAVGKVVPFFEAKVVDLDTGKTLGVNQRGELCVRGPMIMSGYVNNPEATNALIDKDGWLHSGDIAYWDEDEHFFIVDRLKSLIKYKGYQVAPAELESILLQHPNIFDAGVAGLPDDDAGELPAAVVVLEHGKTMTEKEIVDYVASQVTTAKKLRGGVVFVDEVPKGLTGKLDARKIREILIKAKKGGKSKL
Compound,"Substrate specificity (S) for luciferase, relative to that of ATP (luciferase)",Sequence analysis result as substitute for dATP (DNA Sequence S2; [1]),Sequence analysis result as substitute for dATP (DNA Sequence S2; final concentration 4 μM),Substrate specificity for luciferase compared with that of dATPαS (luciferase; FIG. 7)
Nc1ncnc2c1ncn2[C@H]1C[C@H](O)[C@@H](COP(O)(=S)OP(=O)(O)OP(=O)(O)O)O1 (stereo partly drawn) [dATPαS],1/10000,incomplete elongation was able to be presumed to occur,the incomplete elongation is not completely resolved,
Nc1ncnc2c1c(/C=C/C(=O)NCCc1ccncc1)cn2[C@H]1CC(O)[C@@H](COP(=O)(O)OP(=O)(O)OP(=O)(O)O)O1 (stereo partly drawn) [A3d],1/1000,"up to the nucleotide G at Cycle 7, a sequence analysis was found to be able to be definitely carried out",,about one order higher
